Experimental data published in ChEMBL document CHEMBL1201862, “PubChem BioAssay data set” (2004).
Active and inactive are the calls of the source.

Tests used:
[1] = target: DNA dC->dU-editing enzyme APOBEC-3A (Homo sapiens, UniProt P31941); assay: Dose Response confirmation of small molecule APOBEC3A DNA Deaminase Inhibitors via a fluorescence-based single-stranded DNA deaminase assay. [Related pubchem assays (depositor defined):AID493011, AID493024]; assay type: functional
[2] = target: DNA dC->dU-editing enzyme APOBEC-3G (Homo sapiens, UniProt Q9HC16); assay type: functional;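 note: Dose-response counterscreen measuring inhibition of APOBEC3G DNA deaminase activity, run while confirming APOBEC3A inhibitors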
Chain of DNA dC->dU-editing enzyme APOBEC-3G (Q9HC16 whole entry): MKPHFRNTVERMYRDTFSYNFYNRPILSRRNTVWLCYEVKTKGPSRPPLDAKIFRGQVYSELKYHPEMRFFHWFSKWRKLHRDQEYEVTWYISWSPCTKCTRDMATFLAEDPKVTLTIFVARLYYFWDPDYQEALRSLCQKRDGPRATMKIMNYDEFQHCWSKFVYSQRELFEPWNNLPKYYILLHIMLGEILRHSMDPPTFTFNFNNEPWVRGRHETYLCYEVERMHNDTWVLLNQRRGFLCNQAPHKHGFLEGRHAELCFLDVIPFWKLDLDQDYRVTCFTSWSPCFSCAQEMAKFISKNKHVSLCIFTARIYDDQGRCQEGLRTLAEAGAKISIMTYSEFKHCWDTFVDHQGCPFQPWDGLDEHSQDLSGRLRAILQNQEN

[3] = system: HEK293; assay: inhibition of NOD1-driven NF-kB reporter – cell-based, luminescence, uHTS, primary screen (AID 1578); assay type: functional; details: Homo sapiens
[4] = system: HEK293; assay: cells; assay type: functional, cell-based; details: Homo sapiens
[5] = system: HEK293; assay: cells; assay type: functional, cell-based; details: Homo sapiens; remark: listed apart in the source
[6] = target: Nucleotide-binding oligomerization domain-containing protein 2 (Homo sapiens, UniProt Q9HC29); assay: inhibition of NOD2-driven NF-kB reporter – cell-based, luminescence, uHTS, HEK293 (AID 1566); assay type: functional
Chain of Nucleotide-binding oligomerization domain-containing protein 2 (Q9HC29 whole entry, the tested form may be a part): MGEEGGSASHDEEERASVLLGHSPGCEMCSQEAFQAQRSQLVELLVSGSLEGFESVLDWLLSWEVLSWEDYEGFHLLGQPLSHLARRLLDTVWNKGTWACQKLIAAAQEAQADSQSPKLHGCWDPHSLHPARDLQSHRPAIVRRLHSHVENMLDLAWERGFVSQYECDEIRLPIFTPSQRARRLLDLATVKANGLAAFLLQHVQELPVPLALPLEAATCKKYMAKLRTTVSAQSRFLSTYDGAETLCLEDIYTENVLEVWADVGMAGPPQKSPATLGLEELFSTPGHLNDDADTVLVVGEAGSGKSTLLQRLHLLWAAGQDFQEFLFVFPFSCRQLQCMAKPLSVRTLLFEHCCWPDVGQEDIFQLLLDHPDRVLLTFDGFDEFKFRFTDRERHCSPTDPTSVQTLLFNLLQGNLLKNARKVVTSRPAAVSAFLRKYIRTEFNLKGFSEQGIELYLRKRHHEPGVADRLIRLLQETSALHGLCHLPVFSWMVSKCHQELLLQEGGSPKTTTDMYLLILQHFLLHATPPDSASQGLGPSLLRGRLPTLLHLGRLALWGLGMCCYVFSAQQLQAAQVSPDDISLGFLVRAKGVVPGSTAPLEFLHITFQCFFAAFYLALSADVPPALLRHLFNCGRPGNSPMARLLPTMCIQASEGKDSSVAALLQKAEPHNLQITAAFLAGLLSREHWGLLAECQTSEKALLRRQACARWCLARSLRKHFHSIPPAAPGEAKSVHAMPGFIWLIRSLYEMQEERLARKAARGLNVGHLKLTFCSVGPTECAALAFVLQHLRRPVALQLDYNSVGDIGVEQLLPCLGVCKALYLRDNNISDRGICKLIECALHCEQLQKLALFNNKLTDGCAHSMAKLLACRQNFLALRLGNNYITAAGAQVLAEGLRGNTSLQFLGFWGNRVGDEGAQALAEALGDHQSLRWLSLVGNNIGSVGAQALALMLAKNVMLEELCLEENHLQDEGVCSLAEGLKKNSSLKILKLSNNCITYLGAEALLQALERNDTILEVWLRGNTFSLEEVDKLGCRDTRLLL

[7] = system: HEK293; assay: NOD2 signaling inhibitors in MDP-stimulated cells, cell-based, uHTS, luminescence (AID 2001); assay type: functional; details: Homo sapiens
[8] = system: HEK293; assay: cells; assay type: functional, cell-based; details: Homo sapiens; remark: listed apart in the source
[9] = target: T1, Calpain-2 catalytic subunit (Sus scrofa, UniProt P43367); assay: m-calpain protease blockers, concentration series – biochemical, fluorogenic peptide substrate, dose response (AID 1420); assay type: functional
T1 sequence (P43367 whole entry): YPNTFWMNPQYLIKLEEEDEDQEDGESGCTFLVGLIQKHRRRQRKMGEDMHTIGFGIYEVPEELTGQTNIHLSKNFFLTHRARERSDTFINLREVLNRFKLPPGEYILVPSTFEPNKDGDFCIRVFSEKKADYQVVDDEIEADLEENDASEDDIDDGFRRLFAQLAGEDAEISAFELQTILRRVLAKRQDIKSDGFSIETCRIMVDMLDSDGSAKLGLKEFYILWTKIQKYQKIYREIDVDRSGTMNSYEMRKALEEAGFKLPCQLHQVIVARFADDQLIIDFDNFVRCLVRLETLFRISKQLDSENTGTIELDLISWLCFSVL

[10] = target: T2, Corticotropin-releasing factor receptor 2/Corticotropin-releasing factor-binding protein (Homo sapiens, UniProt P24387+Q13324); assay: Dose Response confirmation of uHTS hits for small molecule antagonists of the CRF-binding protein and CRF-R2 receptor complex.; assay type: functional; details: read-out: IC50_Mean
T2 sequence (Q13324 whole entry): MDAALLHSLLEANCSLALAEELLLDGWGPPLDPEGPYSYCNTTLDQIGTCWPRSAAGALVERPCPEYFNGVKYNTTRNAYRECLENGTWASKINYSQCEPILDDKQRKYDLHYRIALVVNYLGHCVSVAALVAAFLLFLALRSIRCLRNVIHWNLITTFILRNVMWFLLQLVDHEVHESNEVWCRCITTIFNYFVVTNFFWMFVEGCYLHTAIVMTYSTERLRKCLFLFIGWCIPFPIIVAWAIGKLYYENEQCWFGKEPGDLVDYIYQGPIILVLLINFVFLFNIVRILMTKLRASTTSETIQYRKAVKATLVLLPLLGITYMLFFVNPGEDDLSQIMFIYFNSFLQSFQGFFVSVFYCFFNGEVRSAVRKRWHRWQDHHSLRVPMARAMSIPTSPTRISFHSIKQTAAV
T2 sequence (P24387 whole entry): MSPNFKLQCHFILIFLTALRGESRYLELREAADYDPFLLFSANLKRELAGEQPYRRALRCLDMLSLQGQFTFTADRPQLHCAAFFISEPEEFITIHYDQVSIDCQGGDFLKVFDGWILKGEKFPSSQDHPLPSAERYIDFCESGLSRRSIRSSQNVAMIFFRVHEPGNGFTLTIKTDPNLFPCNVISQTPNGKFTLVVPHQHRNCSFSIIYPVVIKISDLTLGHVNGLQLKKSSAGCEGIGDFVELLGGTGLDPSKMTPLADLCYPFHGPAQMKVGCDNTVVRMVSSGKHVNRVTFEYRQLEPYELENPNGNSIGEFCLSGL

[11] = target: T2, Corticotropin-releasing factor receptor 2/Corticotropin-releasing factor-binding protein; assay: activators of CRF receptor 2 with binding protein – uHTS hits, confirmation (AID 602473); assay type: functional; details: read-out: EC50_Mean

Chain of DNA dC->dU-editing enzyme APOBEC-3A (P31941 whole entry): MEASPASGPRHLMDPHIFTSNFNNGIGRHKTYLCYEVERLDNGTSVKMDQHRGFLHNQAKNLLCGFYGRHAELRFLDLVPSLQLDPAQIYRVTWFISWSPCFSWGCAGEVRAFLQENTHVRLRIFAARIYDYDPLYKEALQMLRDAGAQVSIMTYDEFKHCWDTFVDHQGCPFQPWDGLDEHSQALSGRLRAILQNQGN

Structure (SMILES) | IC50 [1] | IC50 [2] | EC50 [3] | IC50 [4] | IC50 [5] | EC50 [6] | IC50 [7] | IC50 [8] | IC50 [9] | IC50 [10] | EC50 [11]
COc1ccc(N(CC(=O)NCCSc2ccc(C)cc2)S(=O)(=O)c2ccccc2)c(OC)c1 | 10.9 µM (active) | 9.82 µM (active) | – | – | – | – | – | – | – | – | –
CCc1ccc(C(=O)OCC(=O)c2c(N)n(CC(C)C)c(=O)n(C)c2=O)cc1 | – | – | 12.4 µM (active) | 8.39 µM (active) | 13.8 µM (active) | > 20 µM (inactive) | 15.6 µM (inactive) | > 20 µM (inactive) | 2.96 µM (not active) | – | –
Cc1nc2ccc(NS(=O)(=O)c3ccc(C)c(C)c3)cc2s1 | – | – | 3.65 µM (active) | 10.9 µM (active) | > 20 µM (inactive) | 9.53 µM (active) | 10.4 µM (inactive) | > 20 µM (inactive) | – | > 47.1 µM (inactive) | > 53 µM (inactive)
CCN1C(NCCCOC(C)C)=N[C@@H](CCc2ccccc2)[C@H](C(=O)NCCCOC(C)C)[C@H]1C | 2.91 µM (active) | 3.6 µM (active) | – | – | – | – | – | – | – | – | –
